# Laboratory results: PMC8706149 (International Journal of Molecular Sciences, 2021)
# Where two headings read alike, the source gives them in different places. Marks after values point to notes of the source that are not given here. Bridge positions count the residues as written; N and C are the ends. Square brackets hold non-standard residues; d marks the D form. Peptide text beside a SMILES is read from it. * marks the point of attachment. X1 = CC[C@H](C)CCCCC(=O)*; Dab = NCC[C@H](N)C(=O)O
# Columns and labels:
# [1] = Photostability under constant excitation; format: physicochemical; conditions: 60 min constant excitation at maximum absorption (Figure S3)
# Source text: As comparative control, we used the very photostable fluorophore PyMPO [33] by treating PyMPO-(C)GKY20 in the same conditions.
# [2] = cited from earlier work; for pKa of the phenolic group of luciferin: ground state
# Source text: Excited states are indicated by an asterisk. (C) Condensation reaction between 6-substituted 2-cyanobenzothiazoles and cysteine (free or as N-terminal residue of a peptide). R1 and R2 can be a wide variety of alkyl and acyl groups.
# [3] = tested on: Escherichia coli ATCC 25922; format: cell-based; conditions: positive control antibiotic; Nutrient Broth 0.5x, overnight 37°C
# Method: (§1) All the labeled peptide after purification were lyophilized and dissolved in water. Purity was veri-fi e d by RP-HPLC on C18 column . Pepti de i dentity was assessed by mass spectrometry anal yses (Supplementary Methods, section S4; Table S1).
# (§2) S6. Antimicrobial activity assay
# (§3) MIC (Minimum Inhibitory Concentration) analyses were performed by broth microdilution method for antimicrobial peptides previously described wi th mi nor modi ficati ons. In detai l s, assays were carried out in Nutrient Broth 0.5x (Difco, Detroit, MI, US A ) usi ng st e r i le 96-well polypropylene mi-croti ter pl ates (cat. 3879, C ostar C orp., C ambri dge, MA , US A ). Bacterial strains were grown in Luria-Bertani (LB) medium overnight at 37°C and then diluted in Nutrient Broth at a final concentration of ~5x10^5 CFU/mL per well. Twofold serial dilutions of peptides were carried out in the test wells […]
# (§4) Plates were incubated overnight at 37°C. MIC value was taken as the lowest concentration at which growth was inhibited. Three independent experiments we r e performed for each MIC value. […] MIC values were measured on Gram-negative ( E scherichia coli ATCC 25922) and Gram-po si t i ve st r ains (Sta phyl o co ccus a ure us ATCC 6538P and Bacillus globigii TNO BMO13) . […]
# [4] = tested on: Bacillus globigii TNO BMO13; experiment: MIC, broth microdilution; format: cell-based; conditions: Bacillus subtilis, TNOBMO13, read-out: MIC (µg/mL) Bacillus globigii TNO BMO13
# Method: as §1, §2, §3, §4
compound,measurement,setting,value
1-[2-(maleimido)ethyl]-4-[5-(4-methoxyphenyl)-2-oxazolyl]pyridinium-labeled GKY20 [PyMPO-(C)GKY20],loss of initial fluorescence,[1],43%
"O=C(O)[C@H]1CSC(c2nc3ccc(O)cc3s2)=N1 [Free Luc, luciferin]",pKa of the phenolic group of luciferin,[2],8.70 ^b
same,pKa of the phenolic group of luciferin,[2]; listed as LUC-OH,8.7
same,pKa of the phenolic group of luciferin,[2]; listed as Luc,≈ 8.7
same,pKa of light-induced dissociation (excited state) of luciferin,"[2]; photoacid, excited state",< 1
"CC[C@H](C)CCCCC(=O)N[C@@H](CCN)C(=O)N[C@H](C(=O)N[C@@H](CCN)C(=O)N[C@H]1CCNC(=O)[C@H]([C@@H](C)O)NC(=O)[C@H](CCN)NC(=O)[C@H](CCN)NC(=O)[C@H](CC(C)C)NC(=O)[C@@H](Cc2ccccc2)NC(=O)[C@H](CCN)NC1=O)[C@@H](C)O [Polymyxin B, polymyxin B] (X1-[Dab]T[Dab][Dab][Dab][dF]L[Dab][Dab]T; lactam 4-C (inferred); N-terminus assumed)",MIC (µg/mL) Escherichia coli 25922 ATCC,[3],0.5 µg/mL
"CN[C@H](CC(C)C)C(=O)N[C@H]1C(=O)N[C@@H](CC(N)=O)C(=O)N[C@H]2C(=O)N[C@H]3C(=O)N[C@H](C(=O)N[C@H](C(=O)O)c4cc(O)cc(O)c4-c4cc3ccc4O)[C@H](O)c3ccc(c(Cl)c3)Oc3cc2cc(c3O[C@@H]2O[C@H](CO)[C@@H](O)[C@H](O)[C@H]2O[C@H]2C[C@](C)(N)[C@H](O)[C@H](C)O2)Oc2ccc(cc2Cl)[C@H]1O [Vancomycin, vancomycin]",MIC,[4],2 µg/mL
